Assay results from US12065442B2, “Tropomyosin receptor kinase (TRK) degradation compounds and methods of use” (Cullgen (Shanghai), Inc., priority 2018, dated 2024).
pIC50: −log10 of the molar value. Entries after “also recorded” stand apart in the source; their conditions may differ. Read-outs that look alike come from different tables or passages of the source.

Legend:
KM12 cells = test: Cell viability assay (CellTiter-Glo) in KM12 cells; type: cell-based; settings: for pIC50: Homo sapiens, 72 h, KM12 cell viability, CellTiter-Glo, 3 days, read-out: IC50
TRK-fusions = settings: cited from earlier work
[1] = Mouse pharmacokinetic (PK) studies; type: in vivo; settings: male, Swiss Albino, mouse, plasma; mice, 2 mg/kg intravenous injection and 20 mg/kg oral gavage, over 12 hours (FIG. 14)
Description: To investigate the pharmacokinetics of bi-functional compounds, exemplified by TR-123, a single 20 mg/kg intraperitoneal injection was evaluated. […] Additionally, doses of 2 mg/kg TR-198 via intravenous injection and 20 mg/kg TR-198 via oral gavage were evaluated in mice.
A single 20 mg/kg intraperitoneal injection of compound TR-123 was evaluated. Plasma concentrations of TR-123 reported at each of the 6 time points (30 min, 1 h, 2 h, 4 h, 8 h, and 12 h post compound administration) are the average values from 3 test animals.
A single 2 mg/kg intravenous injection and 20 mg/kg oral gavage of TR-198 were evaluated in mice.
Plasma concentrations of TR-198 reported at each of the 6 time points (5 min, 30 min, 2 h, 4 h, 8 h, and 12 h post compound administration via IV, 30 min, 1 h, 2 h, 4 h, 8 h, and 12 h post compound administration via p.o.) are the average values from 3 test animals.
Standard PK studies were conducted using male Swiss Albino mice by Sai Life Sciences. A single 20 mg/kg intraperitoneal (IP) injection of compound TR-123 was evaluated. Plasma concentrations of TR-123 reported at each of the 6 time points (30 min, 1 h, 2 h, 4 h, 8 h, and 12 h post dosing) are the average values from 3 test animals. Error bars represent+SD.

[2] = Body weight of xenograft-bearing mice (toxicity); type: in vivo, Athymic nude mice
Description: (§1) Athymic nude mice bearing KM12 subcutaneous xenograft tumors at the right flank were intraperitoneally treated with vehicle or 25 mg/kg CPD-060 once per day (qd), twice per day (bid), or once every two days (q2d). Tumor volumes were assessed every two days and expressed as length×width×width/2. Body weights of experimental mice were also measured to assess the toxicity of compounds.
(§2) Athymic nude mice bearing KM12 subcutaneous xenograft tumors at the right flank were treated with vehicle, 10-20 mg/kg TR-181 or TR-198 once per day (qd), or twice per day (bid) via oral gavage. Tumor volumes were assessed every two days and expressed as length×width×width/2. Body weights of experimental mice were also measured to assess the toxicity of compounds.
(§3) All animal experiments were performed under protocols approved by the Institutional Animal Care and Use Committee (IACUC) of Cullgen. Athymic nude mice (male, 5-weeks old) received 5 million KM12 cells subcutaneously inoculated at the right flank site. Ten days following inoculation, tumors were approximately 500 mm3 in size. Tumor-bearing mice were treated intraperitoneally with vehicle or bivalent compounds at indicated doses. Tumor sizes and body weight of mice were measured every 2 days. In addition, immunoblotting assays were employed to assess the levels of TRKA fusion proteins in xenograft tumors around 500 mm^3 in size following drug administration. At indicated hours after drug administration, selected mice were sacrificed, tumors were resected. Small chunks of tumors were homogenized for immunoblotting of TPM3-TPKA and other proteins as indicated.

[3] = tested on: KM12 subcutaneous xenograft tumors; test: KM12 subcutaneous xenograft tumor growth study; type: in vivo, Athymic nude mice
Description: as §1, §2, §3

TPM3-TRKA fusion protein [4] = target: T1, TPM3-TRKA fusion protein (Homo sapiens, UniProt P04629+P06753+Q96SW2); test: Immunoblotting of TPM3-TRKA fusion protein in KM12 cells; type: cell-based; parameters: The resulted chimeric proteins always retain the kinase domain of TRK proteins; TPM3 (N-terminal fusion partner, natural gene fusion); endogenous in cells; host or cells: KM12 colon cancer cells; settings: for time after adding compound at which significant degradation of TPM3-TRKA was detected: 100 nM (FIG. 2); for TPM3-TRKA protein levels / TPM3-TRKA protein levels, time course: 100 nM; for TPM3-TRKA protein levels: 16 hours (FIG. 1A-1C); for TPM3-TRKA protein levels, time course: indicated incubation time (FIG. 2)
T1 sequence (P06753+P04629 fused): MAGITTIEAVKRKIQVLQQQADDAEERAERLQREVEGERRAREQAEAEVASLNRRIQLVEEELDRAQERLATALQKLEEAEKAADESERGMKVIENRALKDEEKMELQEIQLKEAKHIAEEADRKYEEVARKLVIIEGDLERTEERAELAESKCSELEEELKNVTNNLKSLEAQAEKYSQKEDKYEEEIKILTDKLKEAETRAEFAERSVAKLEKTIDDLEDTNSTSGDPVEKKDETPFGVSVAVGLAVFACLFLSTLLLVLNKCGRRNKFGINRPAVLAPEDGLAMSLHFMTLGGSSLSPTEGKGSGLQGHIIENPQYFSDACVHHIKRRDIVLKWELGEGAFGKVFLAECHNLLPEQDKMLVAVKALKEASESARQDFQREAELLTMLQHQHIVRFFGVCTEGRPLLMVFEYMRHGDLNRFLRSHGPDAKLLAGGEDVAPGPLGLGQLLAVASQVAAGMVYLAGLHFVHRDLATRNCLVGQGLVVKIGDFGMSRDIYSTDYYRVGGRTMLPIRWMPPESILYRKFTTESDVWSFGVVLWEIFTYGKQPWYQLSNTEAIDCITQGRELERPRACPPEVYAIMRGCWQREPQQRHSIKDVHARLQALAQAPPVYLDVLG
T1 sequence (Q96SW2 whole entry, the tested form may be a part): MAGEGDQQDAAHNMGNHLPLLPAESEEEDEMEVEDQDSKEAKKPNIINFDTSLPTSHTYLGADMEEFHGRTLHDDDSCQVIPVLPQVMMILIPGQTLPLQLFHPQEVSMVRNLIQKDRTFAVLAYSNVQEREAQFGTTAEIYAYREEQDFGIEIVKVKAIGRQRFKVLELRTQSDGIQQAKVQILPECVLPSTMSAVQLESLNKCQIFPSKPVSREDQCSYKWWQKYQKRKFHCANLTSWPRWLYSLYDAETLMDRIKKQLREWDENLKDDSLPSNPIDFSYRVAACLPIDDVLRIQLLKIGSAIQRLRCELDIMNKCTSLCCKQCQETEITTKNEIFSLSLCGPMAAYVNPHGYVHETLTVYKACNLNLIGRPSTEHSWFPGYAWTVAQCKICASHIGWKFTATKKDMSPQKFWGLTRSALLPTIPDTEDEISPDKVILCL
T1 sequence (Q16531 whole entry partner, the tested form may be a part): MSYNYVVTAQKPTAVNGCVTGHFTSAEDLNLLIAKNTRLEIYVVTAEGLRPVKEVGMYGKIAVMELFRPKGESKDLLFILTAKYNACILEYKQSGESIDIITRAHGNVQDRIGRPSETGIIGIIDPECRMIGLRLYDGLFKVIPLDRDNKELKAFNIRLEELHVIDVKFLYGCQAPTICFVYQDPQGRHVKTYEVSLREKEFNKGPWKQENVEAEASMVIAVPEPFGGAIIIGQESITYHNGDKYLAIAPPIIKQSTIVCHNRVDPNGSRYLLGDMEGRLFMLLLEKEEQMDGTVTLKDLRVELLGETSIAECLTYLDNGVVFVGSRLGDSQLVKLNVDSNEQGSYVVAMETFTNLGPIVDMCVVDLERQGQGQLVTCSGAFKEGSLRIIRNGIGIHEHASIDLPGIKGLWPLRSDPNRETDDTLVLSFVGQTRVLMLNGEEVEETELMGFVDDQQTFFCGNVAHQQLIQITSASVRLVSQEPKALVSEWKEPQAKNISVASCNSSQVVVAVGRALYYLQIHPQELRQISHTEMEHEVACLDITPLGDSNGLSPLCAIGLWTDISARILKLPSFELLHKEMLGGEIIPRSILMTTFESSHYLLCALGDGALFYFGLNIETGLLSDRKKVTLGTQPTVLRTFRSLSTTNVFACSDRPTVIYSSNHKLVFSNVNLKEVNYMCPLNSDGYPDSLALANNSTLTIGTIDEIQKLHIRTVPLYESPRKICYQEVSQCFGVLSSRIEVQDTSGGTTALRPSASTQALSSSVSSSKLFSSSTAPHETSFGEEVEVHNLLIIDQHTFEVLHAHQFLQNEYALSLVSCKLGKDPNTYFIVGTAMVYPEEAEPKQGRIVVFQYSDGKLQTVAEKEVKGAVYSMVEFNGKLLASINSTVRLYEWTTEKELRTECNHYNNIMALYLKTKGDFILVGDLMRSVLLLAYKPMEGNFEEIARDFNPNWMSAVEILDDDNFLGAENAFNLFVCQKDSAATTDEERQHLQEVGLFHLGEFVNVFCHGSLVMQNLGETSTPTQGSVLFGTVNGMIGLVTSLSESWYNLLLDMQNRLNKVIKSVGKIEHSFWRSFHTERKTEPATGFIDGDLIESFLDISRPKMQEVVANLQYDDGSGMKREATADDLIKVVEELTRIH
Description: Specific exemplary bivalent compounds were characterized in KM12 cells. […] Cells were collected, lysed and subject to immunoblotting using an antibody specific to TRK proteins. GAPDH was included as the loading control. DMSO was used as the negative control.
KM12 cells were treated with DMSO or indicated compounds at 100 nM for 16 hours.
KM12 cells were treated with CPD-027, CPD-053, and CPD-060 at 100 nM for indicated incubation time. […]
KM12 or HEL cells were treated with a dose range of compound TR-123 or TR-123-negative. The latter lost binding to cereblon (CRBN) due to a chemical modification.
KM12 or HEL cells were treated with a single dose of compound TR-123 or combination with MG-132, Bortezomib, MLN4924 or Pomalidomide. […]
(§4) Cultured cells were washed with cold PBS once and lysed in cold RIPA buffer supplemented with protease inhibitors and phosphatase inhibitors (Beyotime Biotechnology). The solutions were then incubated at 4° C. for 30 minutes with gentle agitation to fully lyse cells. For tumor tissues, tumors were cut into small pieces, milled with cold RIPA buffer using a mechanical homogenizer and lysed for 1 hour at 4° C. Cell lysates were centrifuged at 13,000 rpm for 10 minutes at 4° C. and pellets were discarded. Total protein concentrations in the lysates were determined by BCA assays (Beyotime Biotechnology). Cell lysates were mixed with Laemmli loading buffer to 1× and heated at 99° C. for 5 min. Proteins were resolved on SDS-PAGE and visualized by chemiluminescence. Images were taken by a ChemiDoc MP Imaging system (Bio-Rad). Protein bands were quantitated using the software provided by Bio-Rad.

TPM3-TRKA fusion protein [5] = target: T1, TPM3-TRKA fusion protein; test: Immunoblotting of TPM3-TRKA in KM12 subcutaneous xenograft tumors; type: in vivo, Athymic nude mice; parameters: The resulted chimeric proteins always retain the kinase domain of TRK proteins; TPM3 (N-terminal fusion partner, natural gene fusion); from tissue; host or cells: KM12 subcutaneous xenograft tumors in athymic nude mice; settings: 10, 20, or 50 mg/kg intraperitoneally, single dose, four hours after administration (FIG. 3)
Description: In addition to cultured cells, athymic nude mice bearing KM12 subcutaneous xenograft tumors at the right flank were intraperitoneally treated with 10, 20, or 50 mg/kg CPD-053, CPD-027, or CPD-060. Four hours after drug administration, animals were sacrificed for immunoblotting of TPM3-TPKA in homogenized xenograft tumor masses. The label “a” or “b” represents two different samples of the same xenograft tumor.
Athymic nude mice bearing KM12 subcutaneous xenograft tumors at the right flank were intraperitoneally treated with 10, 20, or 50 mg/kg CPD-053, CPD-027, or CPD-060, as indicated in FIG. 3. Four hours after drug administration, animals were sacrificed for immunoblotting of TPM3-TPKA in homogenized xenograft tumor chunks. The label “a” or “b” represents two different chunks of the same xenograft tumor.
Athymic nude mice bearing KM12 subcutaneous xenograft tumors at the right flank were intraperitoneally or orally treated with bivalent compounds at indicated dose. Eight hours after drug administration, animals were sacrificed for immunoblotting of TPM3-TPKA in homogenized xenograft tumor samples.
as §4, §3

KRAS-mutant H358 cells = test: Cell viability assay (CellTiter-Glo) in H358 cells; type: cell-based; settings: 1000 nM, 8-point 3-fold serial dilution, 3 days (FIG. 4B)
Description: The kinase activity of TRK is known to play important roles in tumors expressing TRK-fusion proteins, as TRK kinase inhibitors compromise cell proliferation, survival, and induce marked clinical responses (Amatu et al., 2016; Drilon et al., 2018; Drilon et al., 2017; Khotskaya et al., 2017). […] Three days after treatment, cell viability was determined using the CellTiter-Glo kit following manufacturer's instructions. Cell viability was normalized to the mean values of 3 replicates of untreated cells. Dose-dependent response was analyzed following the least-squares non-linear regression method using the GraphPad Prism 5.0 software. Each data point in the figure represents the mean values of three technical replicates±standard deviation. […] More specifically, all bivalent compounds that had IC50 values smaller than 1000 nM in KM12 cells induced degradation of TPM3-TRKA (FIG. 1 and Table 2-4). […]
Cells were seeded at a density of 5000 cells per well in 96-well assay plates and treated with test compounds following a 12-point 2-fold serial dilution or a 8-point 3-fold dilution. Three days later, cell viability was determined using the CellTiter-Glo assay kit (Promega) according to the manufacturer's instructions. The dose-response curves were determined and IC50 values were calculated using the GraphPad Prism software following a nonlinear regression (least squares fit) method.

| SMILES | pIC50 (KM12 cells; Table 3) | time after adding compound at which significant degradation of TPM3-TRKA was detected (TPM3-TRKA fusion protein [4]) | TPM3-TRKA protein levels (TPM3-TRKA fusion protein [4]) | TPM3-TRKA protein levels, time course (TPM3-TRKA fusion protein [4]) | TPM3-TRKA protein levels in KM12 subcutaneous xenograft tumors (TPM3-TRKA fusion protein [5]) | pIC50 (KM12 cells; Table 2) | further results |
| --- | --- | --- | --- | --- | --- | --- | --- |
| O=C(Nc1cnn2ccc(N3CCC[C@@H]3c3cc(F)ccc3F)nc12)N1CC[C@H](O)C1 [LOXO-101, larotrectinib] | 7.60 | – | – | – | – | – | patients who responded to the therapy (TRK-fusions; phase 2 (Drilon et al., 2018)): 75%; patients remaining progression-free (TRK-fusions; phase 2, at 1 year (Drilon et al., 2018)): 55% |
| O=C1CCC(N2C(=O)c3ccc(N4CC(CN5CCN(c6cccc(-c7cnc8ccc(N9CCC[C@@H]9c9cccc(F)c9)nn78)n6)CC5)C4)cc3C2=O)C(=O)N1 (stereo partly drawn) [TR-198, 2-(2,6-dioxopiperidin-3-yl)-5-(3-((4-(6-(6-((R)-2-(3-fluorophenyl)pyrrolidin-1-yl)imidazo[1,2-b]pyridazin-3-yl)pyridin-2-yl)piperazin-1-yl)methyl)azetidin-1-yl)isoindoline-1,3-dione] | 8.26 | – | – | – | – | – | bioavailability [1]: ~16%; body weight ([2]; 10-20 mg/kg qd or bid via oral gavage (FIG. 15B)): without inducing substantial weight losses; growth of KM12 subcutaneous xenograft tumors ([3]; 10-20 mg/kg qd or bid via oral gavage (FIG. 15A)): significant in vivo anti-tumor activity; also recorded: significantly repressed the growth |
| O=C(CN1CCN(c2cccc(-c3cnc4ccc(N5CCC[C@@H]5c5cccc(F)c5)nn34)n2)CC1)NCCNc1cccc2c1C(=O)N(C1CCC(=O)NC1=O)C2=O (stereo partly drawn) [CPD-060, N-(2-((2-(2,6-dioxopiperidin-3-yl)-1,3-dioxoisoindolin-4-yl)amino)ethyl)-2-(4-(6-(6-((R)-2-(3-fluorophenyl)pyrrolidin-1-yl)imidazo[1,2-b]pyridazin-3-yl)pyridin-2-yl)piperazin-1-yl)acetamide] | – | 15 min | particularly effective in reducing TPM3-TRKA protein levels | rapidly reduced TPM3-TRKA protein levels | significantly reducing TPM3-TRKA protein levels | 8.22 | body weight ([2]; 25 mg/kg intraperitoneally qd, bid or q2d (FIG. 12B)): without inducing substantial weight losses; growth of KM12 subcutaneous xenograft tumors ([3]; 25 mg/kg intraperitoneally qd, bid or q2d (FIG. 12A)): significantly repressed the growth |
| O=C1CCC(N2C(=O)c3cccc(NCCCC(=O)N4CCN(c5ccc(C(=O)Nc6n[nH]c7ccc(Cc8cc(F)cc(F)c8)cc67)c(NC6CCOCC6)c5)CC4)c3C2=O)C(=O)N1 (stereo not shown) [CPD-053, N-(5-(3,5-Difluorobenzyl)-1H-indazol-3-yl)-4-(4-(4-((2-(2,6-dioxopiperidin-3-yl)-1,3-dioxoisoindolin-4-yl)amino)butanoyl)piperazin-1-yl)-2-((tetrahydro-2H-pyran-4-yl)amino)benzamide] | – | 15 min | particularly effective in reducing TPM3-TRKA protein levels | rapidly reduced TPM3-TRKA protein levels | significantly reducing TPM3-TRKA protein levels | 8.82 | viability of H358 cells (KRAS-mutant H358 cells): did not affect cell viability; viability of KM12 cells (KM12 cells; 500 nM, 12-point 2-fold serial dilution, 3 days (FIG. 4A)): inhibited the viability; also recorded: dose-dependently suppressed viability; viability of KM12 cells (KM12 cells; 1000 nM, 8-point 3-fold serial dilution, 3 days (FIG. 4B)): significantly inhibited the viability |
